Measurements reported in US20240156802A1, “METHODS FOR TREATING DISORDERS AMELIORATED BY MUSCARINIC RECEPTOR ACTIVATION” (KARUNA THERAPEUTICS, INC., priority 2021, published 2024).

Assays:
[1] = Phase 1b exploratory PK of xanomeline in healthy elderly subjects given KarXT; assay type: in vivo, human; conditions: for blood levels in healthy elderly subjects compared with adults under 65: Cohorts 1 and 2, lower oral doses; for Cmax: human, plasma, oral
Protocol: (§1) The purpose of this Phase 1b clinical trial was to evaluate the safety and tolerability of KarXT in healthy elderly volunteers and to assess its potential efficacy and safety in dementia-related psychosis (DRP). In the Phase 1b trial, the various doses and ratios were evaluated for both xanomeline and trospium in healthy elderly volunteers using a flexible dosing protocol titrated over about 2 to 3 weeks. The maximum dose was reached on Day 12, 15, and 17 in Cohorts 1, 2, and 3, respectively. Dosing lasted a total of 14, 18, and 20 days, respectively. Each cohort consisted of 16 healthy elderly volunteers.
(§2) This was a Phase 1, randomized, double-blind, multiple-dose, adaptive-design study evaluating the safety, tolerability, and exploratory PK of KarXT in healthy elderly subjects. The study consisted of a screening period of up to 28 days. This inpatient investigative period included a treatment period and a post-treatment observation period. A follow-up visit was completed 7±3 days after administering the final dose of the study drug. For Cohort 1, the inpatient investigative period was up to 17 days, including admission, a treatment period of up to 14 days, and a 2-day post-treatment observation period. For Cohort 2, the inpatient investigative period was up to 21 days, including admission, a treatment period of up to 18 days, and a 2-day post-treatment observation period. For Cohort 3, the inpatient investigative period was up to 23 days, including admission, a treatment period of up to 20 days, and a 2-day post-treatment observation period.
Subjects assigned to active treatment in Cohorts 1 and 2 started treatment with a lead-in dose of KarXT for 2 days. Subjects assigned to active treatment in Cohort 3 started treatment with a lead-in dose of KarXT for 4 days. KarXT doses were increased beginning on Day 3 (or Day 5 for Cohort 3) according to cohort-specific plans (FIGURE S 1) to achieve the following final cohort-specific total daily dose (TDD) of KarXT, if tolerated: • Cohort 1: 200/40 mg • Cohort 2: 200/30 mg • Cohort 3: 150/20 mg
The assessment of adverse events, clinical laboratory samples, electrocardiograms (ECGs), vital signs (including orthostatic vital signs), urine output monitoring, Columbia-Suicide Severity Rating Scale (C-SSRS), serial PK sampling, and collecting saliva to measure saliva volume were performed at defined time points during the study.
Table 2 contains the xanomeline Cmax data collected on the final day of the dosing period for cohorts 1, 2, and 3 in the healthy elderly trial compared to day 28 (last day PK data was collected) in the EMERGENT-1 trial for a patient population of ages 18-60 inclusive.

[2] = 125/30 mg dose group in EMERGENT-1, day 28, ages 18-60, TDD 250 mg; cited from earlier work
[3] = 25-75 mg TID, 75-225 mg TDD; cited from earlier work
[4] = 26-week study of Alzheimer's disease; cited from earlier work
[5] = Phase 1b safety and tolerability of KarXT in healthy elderly subjects (adverse events); assay type: in vivo, human; conditions: 30 mg TDD versus 40 mg TDD, given with xanomeline, normal elderly volunteers
Protocol: as §1
as §2, with “For Cohort 3, the inpatient investigative period was up to 23 days, including admission, a treatment period of up to 20 days, and a 2-day post-treatment observation period.” left out

CCCCCCOc1nsnc1C1=CCCN(C)C1 [Xanomeline, xanomeline]
blood levels in healthy elderly subjects compared with adults under 65 [1]: higher blood levels | Cmax ([1]; Cohort 1, final day of dosing, average dose before PK 67 mg, average TDD 172 mg): 7.3 ± 2 ng/mL | Cmax ([1]; Cohort 2, final day of dosing, average dose before PK 61 mg, average TDD 156 mg): 14.2 ± 5.3 ng/mL | Cmax ([1]; Cohort 3, final day of dosing, average dose before PK 39 mg, average TDD 116 mg): 7.2 ± 2 ng/mL | mean plasma levels (Cmax) compared with EMERGENT-1 (200-250 mg xanomeline) ([1]; oral xanomeline about 100 to 200 mg per day, healthy elderly volunteers): comparable to, or slightly higher than | mean Cmax of xanomeline [2]: 9.4 ± 1.5 ng/mL | effect on schizophrenia [3]: alleviated | dropout rate [4]: 56%

O=C(O[C@H]1C[C@H]2CC[C@@H](C1)[N+]21CCCC1)C(O)(c1ccccc1)c1ccccc1 [trospium, trospium chloride]
tolerability by trospium dose [5]: performed better | blood levels in healthy elderly subjects compared with adults under 65 [1]: higher blood levels
